{"source": "patent US9011935B2", "about": "“Therapeutic composition and use” (priority 2006, dated 2015)", "key": {"[1]": {"test_system": "Methicillin Resistant Staphylococcus Aureus (MRSA)", "assay": "Agar plate antibacterial test (Example 1)", "settings": "liquid added to hollow circle of seeded agar plate, FIG. 1", "method": "(§1) A 1M solution of potassium nitrite was prepared by diluting 8.51 g of KNO2 in 100 ml of distilled water. 17.612 g of ascorbic acid was diluted in 100 ml of distilled water to form a 1M solution. The three stock solutions were prepared a few minutes prior to the experiments.\n(§2) A volume of NaNO2 and an equal volume of KNO2 were mixed with twice the volume of ascorbic acid in a sterile container to produce an “oxides of nitrogen” containing solution. A reaction between the nitrites and the acid occurred instantly. The gas produced was released and 2 ml of the premixed liquid (0.25M) was added to 20 ml of distilled water to give a final concentration of the solution of 1.25 mM.\n(§3) Separate samples of NaNO2, KNO2 and ascorbic acid were also prepared as described above.\n(§4) An overnight culture of bacteria was prepared by inoculating 20 ml of LB (Luria-Bertani 10 g Bacto-tryptone, +5 g Bacto-yeast extract, +10 g sodium chloride per liter, at pH 7.5) broth with 2 to 3 colonies, and incubating at 37° C. overnight. Broth cultures containing approximately 109 organisms were produced. Bacteria were diluted 1:1000 using phosphate buffer saline (PBS) and 100 μl of diluted broth cultures were seeded on the Brain-Heart agar plates. Prior to seeding bacteria on to the surface of the agar plates a piece of agar (approximately 70 mm in diameter) from the centre of the plates was removed. […]"}, "[2]": {"test_system": "Coagulase negative Staphylococcus (CNS)", "assay": "Agar plate antibacterial test (Example 4)", "settings": "liquid added to hollow circle of seeded agar plate, FIG. 4", "method": "as §1, §2, §3, §4"}, "Candida Albicans (CA)": {"test_system": "Candida Albicans (CA)", "assay": "Agar plate antibacterial test (Example 2)", "settings": "liquid added to hollow circle of seeded agar plate, FIG. 2", "method": "as §1, §2, §3, §4"}, "[3]": {"test_system": "Pseudomonas Aeruginosa (PS)", "assay": "Agar plate antibacterial test (Example 3)", "settings": "liquid added to hollow circle of seeded agar plate, FIG. 3", "method": "as §1, §2, §3, §4"}, "[4]": {"assay": "pH change on addition of L-ascorbic acid to sodium nitrite (Examples 16 and 17)", "format": "physicochemical", "settings": "1M sodium nitrite in normal saline, before acid addition", "procedure": "The pH change was measured when L-ascorbic acid was added to sodium nitrite incrementally and as a single addition.\nAnalytical grade (>99% purity) sodium nitrite (NaNO2) and L-ascorbic acid (C6H8O6) from Sigma-Aldrich, UK were used. Saline (0.9% wv of NaCl) was from Baxter Healthcare-UK was also used.\nNormal saline was used as solvent in the preparation of the solutions of sodium nitrite and ascorbic acid. All solutions were prepared at room temperature (22-25° C.) in lots of 25 or 50 ml and were used within 10-20 days. Stock solutions were kept in airtight vessels away from light.\nAll pH measurements of the solutions were carried out with a Wissenschaftlich-Technische Werkstätten (WTW) pH meter, model pH340i along with a SenTix 20 pH combination electrode incorporating a thermocouple. The electrode was calibrated with freshly prepared buffer calibrating solutions (pH 7.00 and 4.00±0.002). Calibrating solutions were prepared from ALDRICH Tri-check buffer capsules, Aldrich, USA.\nThe pH of the solutions was measured with the addition of a standard magnetic stir bar operating at 60 rpm. At least 12 ml of solutions were used to ensure that the electrode was completely immersed. 1M solutions of sodium nitrite and ascorbic acid were prepared using normal saline as solvent. In Example 16, 1 ml of acid was added to the nitrite every 10 minutes. […]"}, "[5]": {"test_system": "Methicillin Resistant Staphylococcus Aureus (MRSA)", "assay": "Agar plate exposed to gaseous NO in a closed box (Example 5)", "format": "cell-based", "settings": "overnight incubation in closed box with NO gas, FIG. 5", "procedure": "A Methicillin Resistant Staphylococcus Aureus (MRSA) culture was produced in the same manner as for Examples 1 to 4. The agar plate was placed in a polystyrene box. Gaseous NO was produced by reacting 10 ml 1M ascorbic acid with 5 ml 1M NaNO2 and 5 ml 1M KNO2 in the box and the lid of the box replaced immediately, followed by overnight incubation of the culture."}}, "data": [{"smiles": "O=C1O[C@H]([C@@H](O)CO)C(O)=C1O", "note": "[A, ascorbic acid]", "values": [{"measurement": "bacterial colonies on agar plate", "setting": "[1]", "result": "large amount of bacteria"}, {"measurement": "bacterial colonies on agar plate", "setting": "[2]", "result": "large amount of bacteria"}, {"measurement": "bacterial colonies on agar plate", "setting": "Candida Albicans (CA)", "result": "large amount of bacteria"}, {"measurement": "bacterial colonies on agar plate", "setting": "[3]", "result": "large amount of bacteria"}]}, {"smiles": "O=NO", "note": "[sodium nitrite solution, sodium nitrite]", "values": [{"measurement": "initial pH", "setting": "[4]", "result": "approximately 7.35"}]}, {"smiles": "[N]=O", "note": "[Gaseous NO, nitric oxide]", "values": [{"measurement": "visible bacterial cultures on agar plate", "setting": "[5]", "result": "no remaining visible bacterial cultures"}]}]}
